The test system of one data set is MMP‐2. Briefly: recombinant human MMP‐2 protein (5 ng µL^−1), activated with 4‐aminophenylmercuric acetate. The note with it: 37 °C, up to 3 h.
Data set [1] can be described thus: tumor tissue from brains of nude mice with orthotopic U87MG transplantation after i.v. injection. The note with it: BALB/C athymic nude mice, up to 12 h.
Data set [2] can be described thus: tumor‐free (normal) brain tissue of nude mice with orthotopic U87MG transplantation after i.v. injection. The note with it: BALB/C athymic nude mice, up to 12 h.
The nature of data set [3]: Solubility in PBS at 3 mg mL^−1 (appearance of the solution). The format is physicochemical.
In another data set the test system is U251. Briefly: MTS cell proliferation assay. It is filed as cell-based. The note with it: Homo sapiens. The method, then:
(§1) The human GBM cell lines (U87MG and U251) were respectively obtained from the American Type Culture Collection (ATCC, Manassas, VA) and the China Academic Sinica Cell Repository (Shanghai, China) and cultured in accordance with the protocol of the supplier. In brief, all the cell lines were maintained in Dulbecco's Modified Eagle Medium (DMEM; Gibco, Grand Island, NY) supplemented with 10% fetal bovine serum (FBS; Biological Industries, Kibbutz Beit Haemek, Israel). Cells were incubated in a humidified incubator at 37 °C under 5% CO2 atmosphere.
(§2) The cells treated with PBS and 100 × 10^−6 м SynB3‐PVGLIG were used as the control and the dual‐functional peptide control, respectively. After treatment, the cells were washed with PBS three times and subsequently incubated with 20 µL Cell Titer 96AQeuous One Solution Reagent (Promega, Madison, WI, USA) for 2 h at 37 °C. The absorbance was measured on a Synergy microplate reader (BioTek Instruments, Winooski, VT) at 490 nm. All the data were obtained from three independent experiments performed in three wells. The absorbance of cells in the control group was taken as 100% viability, and the inhibition rate of cell viability was counted by using the following equation: % Inhibition rate = (Absorbancecontrol − Absorbancetest)/(Absorbancecontrol − Absorbanceblank) × 100.
For orientation: Tetrazolium assays rely on reduction of a dye to a coloured formazan, in cell work by metabolically active cells.

The test system of another data set is U87MG. As to the kind of experiment: MTS cell proliferation assay. It is filed as cell-based. The note with it: Homo sapiens, U-87 MG, linear regression. The method, then: as §1, §2
For the next data set, the system named is U251+MMP‐2 siRNA. Briefly: MTS cell proliferation assay. The format is cell-based. The note with it: Homo sapiens. The method, then:
as §1
(§3) Homo‐MMP‐2 siRNA and nonsilencing siRNA were designed and synthesized by GenePharma (Suzhou, China). The transfection of siRNA was performed using the X‐tremeGENE siRNA transfection reagent (Roche, Mannheim, Germany) in accordance with the manufacturer's instructions. Before transfection, all the cell lines were inoculated at a density of 5 × 10^5 cells per well in a 6‐well plate. After incubation overnight, the cells were washed with fresh DMEM medium without FBS. At the same time, the reagent of transfection was mixed with homo‐MMP‐2 siRNA or nonsilencing siRNA (50 × 10^−9 м) for 15 min at a room temperature. The solution of the transfection complex was then added into the cell for 24 h. As a negative control group, a nonsilencing siRNA was transfected in the cell line in order to eliminate the influence of the transfection reagent.
as §2

In a further data set the test system is U87MG+MMP‐2 siRNA. As to the kind of experiment: MTS cell proliferation assay. It is filed as cell-based. The note with it: Homo sapiens. The method, then:
as §1, §3, §2

Data set [4] is described as follows: Real‐time fluorescence imaging (Cy5) and biodistribution analysis. The format is in vivo, U87MG xenograft nude mice. The note with it: Cy5‐labeled; for Drug distribution at the tumor site in the brain: 5.25 µmol/5 mL kg^−1. As to the method:
An untreated group was administered with physiological saline as a control. Real‐time fluorescence images were captured and analyzed using the IVIS Lumina Imaging System (PerkinElmer, Waltham, MA). […] At 0.5, 2, 4, 12, 24 and 48 h after administration, 3 mice were taken from each group to capture real‐time fluorescence images of the tumor and drug distribution, and the images were analyzed by the IVIS Lumina Imaging System. The excitation and emission quantitative wavelengths used were 640 nm and 700 nm, respectively. At the end of each experiment, animals were euthanized and their brains, lungs, hearts, livers, and kidneys were harvested and further tested by the IVIS Lumina imaging system to determine the drug distribution in tissue from each organ.

Data set [5] has as its target T1, recombinant human MMP‐2 protein (Homo sapiens, UniProt P08253).
T1 construct: purchased PeproTech (Rocky Hill, NJ, USA)
T1 sequence (P08253 110-660): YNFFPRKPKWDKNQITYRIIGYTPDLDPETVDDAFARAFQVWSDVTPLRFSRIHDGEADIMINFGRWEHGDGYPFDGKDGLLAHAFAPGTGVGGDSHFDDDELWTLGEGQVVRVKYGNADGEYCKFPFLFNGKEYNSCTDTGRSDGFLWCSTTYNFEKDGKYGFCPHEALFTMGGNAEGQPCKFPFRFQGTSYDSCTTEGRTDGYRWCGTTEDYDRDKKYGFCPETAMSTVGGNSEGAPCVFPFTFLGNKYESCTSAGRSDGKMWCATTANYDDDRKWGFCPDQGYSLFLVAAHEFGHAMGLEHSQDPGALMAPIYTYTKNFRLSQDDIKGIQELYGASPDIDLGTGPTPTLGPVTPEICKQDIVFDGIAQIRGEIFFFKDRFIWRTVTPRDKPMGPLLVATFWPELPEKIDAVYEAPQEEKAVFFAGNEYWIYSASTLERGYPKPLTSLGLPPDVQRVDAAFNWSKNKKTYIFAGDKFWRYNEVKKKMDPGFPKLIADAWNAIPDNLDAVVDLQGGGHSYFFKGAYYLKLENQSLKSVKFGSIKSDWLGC
As to the kind of experiment: Release study: cleavage by MMP‐2, HPLC/MS. It is filed as in vitro ADME. As to the method: The recombinant human MMP‐2 protein with 62.0 kDa molecular weight was purchased from PeproTech (Rocky Hill, NJ, USA). To observe the ability of cleavage in vitro, MMP‐2 was incubated with 4‐aminophenylmercuric acetate (7 × 10^−3 M) at 37 °C for 1 h. […] The reacting solution (50 µL) was then collected and analyzed through HPLC/MS. The spectra data were collected at 220 nm using gradient solvent conditions. BEH C18, 1.7 × 10^−6 м, 100 × 2.1 mm column was used. The chromatographic conditions used for the analyses were: solvent A – 0.1% formic acid in water; solvent B – 0.1% formic acid in acetonitrile: 0–15 min: 2% MeCN, 15–18 min: 100% MeCN, 18–20 min: 2% MeCN, with a flow rate of 0.3 mL min^−1.

Data set [6] in a line: Cerebral distribution: free PTX in tumor and tumor‐free brain tissue by HPLC/MS. It is filed as in vivo, nude mice with orthotopic U87MG transplantation. The method, then: PTX levels in the mouse brains were measured by the HPLC/MS method. […] Tumor‐free brain tissue as well as the tumor were isolated and weighed separately. The tissue was placed on a 35 mm dish and washed with PBS on ice. The tissue was then cut into small pieces with a surgical scissor and transferred into a 1.5 mL centrifuge tube. Appropriate amounts of 50% methanol were added into the tube to prepare the tissue suspension (0.2 g mL^−1). The tissue suspensions were thoroughly homogenized by an ultrasonic cell disrupter. Thereafter, the tissue homogenates were centrifuged at 10 000 × g for 30 min. The precipitate was removed, and the supernatant was collected for further content analysis by HPLC/MS. […] The drug response values were obtained and analyzed.

[7] abbreviates: 5.25 µmol/5 mL kg^−1, tail vein.

The record followed here is publication PMC7856885 (Advanced Science, 2020).

Usually IC50 stands for the concentration at which inhibition is half-maximal.

“Also recorded” adds a separate entry of the source. Where two headings read alike, the source gives them in different places. Residues, ends and D or L forms follow the SMILES beside them. *: point of attachment. X1 = CC(=O)O[C@H]1C(=O)[C@@]2(C)[C@H]([C@H](OC(=O)c3ccccc3)[C@]3(O)C[C@H](OC(=O)[C@H](OC(=O)CC(=O)*)[C@@H](NC(=O)c4ccccc4)c4ccccc4)C(C)=C1C3(C)C)[C@]1(OC(C)=O)CO[C@@H]1C[C@@H]2O

Consider PVGLIG-RRLSYSRRRF, for which the fragment found entry with MMP‐2 is on record as “PVG‐PTX, 0.5 h; also recorded: SynB3-LIG”; in data set [1] it was “free PTX, 2 h”; in [2], “free PTX, 2 h”.
Take `CC(=O)O[C@H]1C(=O)[C@@]2(C)[C@H]([C@H](OC(=O)c3ccccc3)[C@]3(O)C[C@H](OC(=O)[C@H](O)[C@@H](NC(=O)c4ccccc4)c4ccccc4)C(C)=C1C3(C)C)[C@]1(OC(C)=O)CO[C@@H]1C[C@@H]2O` [PTX, Paclitaxel]: the “Solubility in PBS (appearance)” value in data set [3] is “nearly insoluble”. Moreover, the IC50 in the data set with U251 (U-251, U251, 4 h) was 181 µM; in the data set with U251 (U-251, U251, 24 h), 47.1 µM; with U251 (U-251, U251, 48 h) it was 27.4 µM; with U87MG (4 h), 148 µM; with U87MG (24 h), 46.3 µM; with U87MG (48 h) it was 31.3 µM. The IC50 in the data set on U251+MMP‐2 siRNA (4 h) worked out at 136 µM; in the data set on U251+MMP‐2 siRNA (24 h), 31.5 µM; in the data set with U251+MMP‐2 siRNA (48 h) it was 23.6 µM; with U87MG+MMP‐2 siRNA (4 h), 209 µM; in the data set on U87MG+MMP‐2 siRNA (24 h) it was 37.3 µM; in the data set on U87MG+MMP‐2 siRNA (48 h), 28.5 µM. Further, in data set [4], the “Drug distribution at the tumor site in the brain” value is listed as “no drug distribution was detected”. The “Tissues in which the fluorescence signal (Cy5) was mainly detected” value in data set [4] (setting [7]) is “lungs, liver, and kidneys”.
In turn, `CC[C@H](C)[C@H](NC(=O)[C@H](CC(C)C)NC(=O)CNC(=O)[C@@H](NC(=O)[C@@H]1CCCN1C(=O)CC(=O)O[C@@H](C(=O)O[C@H]1C[C@@]2(O)[C@@H](OC(=O)c3ccccc3)[C@@H]3[C@]4(OC(C)=O)CO[C@@H]4C[C@H](O)[C@@]3(C)C(=O)[C@H](OC(C)=O)C(=C1C)C2(C)C)[C@@H](NC(=O)c1ccccc1)c1ccccc1)C(C)C)C(=O)NCC(=O)N[C@@H](CCCNC(=N)N)C(=O)N[C@@H](CCCNC(=N)N)C(=O)N[C@@H](CC(C)C)C(=O)N[C@@H](CO)C(=O)N[C@@H](Cc1ccc(O)cc1)C(=O)N[C@@H](CO)C(=O)N[C@@H](CCCNC(=N)N)C(=O)N[C@@H](CCCNC(=N)N)C(=O)N[C@@H](CCCNC(=N)N)C(=O)N[C@@H](Cc1ccccc1)C(=O)O` [SynB3‐PVGLIG‐PTX, PTX‐2′OH‐malonyl‐PVGLIG‐SynB3] (X1-PVGLIGRRLSYSRRRF-OH) registered a mean diameter of nanocomplex of 162 nm. In addition, the “Cleavage without MMP‐2” value in [5] (2.5 mg mL^−1, no MMP‐2, HPLC/MS, neither PVG‐PTX nor free PTX detected) is given as “could not be cleaved”. Moreover, the “Percentage of conjugate cleaved by MMP‐2” value in data set [5] (2.5 mg mL^−1 conjugate, activated MMP‐2 5 ng µL^−1, 0.5 h, HPLC/MS) was “about 41.18%”. In addition, in data set [4], the “Drug distribution at the tumor site in the brain” value is “mainly distributed in the transplanted gliomas”. For the same compound, the “Fluorescent signal at 48 h” value in data set [4] (5.25 µmol/5 mL kg^−1, 48 h) is given as “could still be detected in brain”. The “Tissues in which the fluorescence signal (Cy5) was mainly detected” value in [4] (setting [7]) is “bladder, liver, kidneys, lungs, and brain”. For the same compound, in [4] (5.25 µmol/5 mL kg^−1, tail vein, imaged 0.5–48 h), the “Time at which the fluorescent signal in the brain tumor peaked” value worked out at 12 h. For the same compound, the “PTX concentration in tumor, times that of the normal brain” value in data set [6] (2 h after single dose 5.25 µmol/5 mL kg^−1 i.v.) was 20 times. Further, in [6] (last time point (sampling 2, 4, 12 h), single dose 5.25 µmol/5 mL kg^−1 i.v., HPLC/MS, n = 5), the “Concentration of PTX in the tumor tissue, finally reached” value is 456.32 µg G^−1.
In the case of `Cn1nnc2c(C(N)=O)ncn2c1=O` [TMZ, Temozolomide], the “Solubility in PBS (appearance)” value in [3] (3 mg mL^−1 in PBS, visual) is on record as “nearly insoluble”. Besides, the IC50 with U251 (U-251, U251, 4 h) came to 3070 µM; with U251 (U-251, U251, 24 h), 660 µM; in the data set with U251 (U-251, U251, 48 h), 213 µM; with U87MG (4 h), 392 µM; with U87MG (24 h), 382 µM; in the data set on U87MG (48 h) it was 514 µM. In addition, the IC50 in the data set on U251+MMP‐2 siRNA (4 h) came to 3300 µM; in the data set on U251+MMP‐2 siRNA (24 h) it was 869 µM; in the data set with U251+MMP‐2 siRNA (48 h), 131 µM; in the data set with U87MG+MMP‐2 siRNA (4 h), 471 µM; with U87MG+MMP‐2 siRNA (24 h) it was 414 µM; in the data set with U87MG+MMP‐2 siRNA (48 h), 280 µM.
